This is an account of results in EP0742012A2, “Pharmaceutical composition containing substance inhibiting HSP47 production” (priority 1995, dated 1996).

Series [1] relates to HSP47. In words: Amount of HSP47 produced in human cancer cell lines after substance treatment and heat shock, western blotting. The class given is cell-based. Set-up: key to amounts of HSP47 produced: ↓: means that the amounts of HSP47 produced were reduced by the flavonoid-treatment in comparison with the control tests. The note with it: for amounts of HSP47 produced: vs control. A general note: Immunoblotting shows a protein as a band on a membrane.

The subject of series [2] is mice. To be noted: mouse, in vivo, po.
Series [3] relates to mice. The series can be described thus: Acute toxicity test for mice by oral administration.
The test system of series [4] is mouse. The note with it: in vivo, iv; cited from earlier work.
Setting [5] is: colon cancer cell line COLO 205, 100 µM in the medium.
[6] abbreviates: uterus cancer cell line HeLa S3, 100 µM in the medium.
Where [7] appears, read: neuroblastoma cell line SK-N-MC, 100 µM in the medium.

With `O=c1cc(-c2ccccc2)oc2cc(O)c(O)c(O)c12` [baicalein, 5,6,7-trihydroxy-2-phenyl-4H-1-benzopyran-4-one], in series [1] (uterus cancer cell line HeLa S3, 10 µM in the medium), the “amounts of HSP47 produced” value is given as “↓”.
Take `COc1cc(C=CC(=O)O)ccc1O` [ferulic acid, 4-hydroxy-3-methoxycinnamic acid]: the HSP47 production entry in series [1] (uterus cancer cell line HeLa S3, final concentration 100 µM) is listed as “inhibits the HSP47 production”.
Turning to `C[C@@]12C[C@@]3(O)O[C@@H](O1)[C@]1(COC(=O)c4ccccc4)[C@H]3C[C@@]12O[C@@H]1O[C@H](CO)[C@@H](O)[C@H](O)[C@H]1O` [paeoniflorin], the HSP47 production entry in series [1] (uterus cancer cell line HeLa S3) is recorded as “inhibits the HSP47 production”. Besides, the toxicity result in series [2] is “does not have toxicity”. The death result in series [3] is on record as “does hardly cause death”.
On to `O=c1c(O)c(-c2ccc(O)c(O)c2)oc2cc(O)cc(O)c12` [quercetin, 2-(3,4-dihydroxyphenyl)-3,5,7-trihydroxy-4H-1-benzopyran-4-one], for which the “amounts of HSP47 produced” value in series [1] (setting [5]) was “↓”; in series [1] (kidney cancer cell line ACHN, 100 µM in the medium) it was “↓”; in series [1] (setting [6]), “↓”.
Take `C[C@@H]1O[C@@H](OC[C@H]2O[C@@H](Oc3c(-c4ccc(O)c(O)c4)oc4cc(O)cc(O)c4c3=O)[C@H](O)[C@@H](O)[C@@H]2O)[C@H](O)[C@H](O)[C@H]1O` [rutin, quercetin-3-rutinoside]: the “amounts of HSP47 produced” value in series [1] (setting [7]) is “↓”. Moreover, the “acute toxicity (LD50)” value in series [4] was 950 mg/kg.
As to `Cc1c(C)c2c(c(C)c1O)CCC(C)(CCCC(C)CCCC(C)CCCC(C)C)O2` (stereo not drawn) [α-tocopherol, 3,4-dihydro-2,5,7,8-tetramethyl-2-(4,8,12-trimethyltridecyl)-2H-1-benzopyran-6-ol], in series [1] (uterus cancer cell line HeLa S3, final concentration 20 µM), the HSP47 production result was “inhibits the HSP47 production”.
On to (+) -Catechin, for which the “amounts of HSP47 produced” value is “↓” in series [1] (setting [5]); “↓” in series [1] (lung cancer cell line H69, 100 µM in the medium); “↓” in series [1] (setting [7]); “↓” in series [1] (setting [6]).
